# Reference: US20020115724A1, “Methods and agents for inhibiting protein aging” (priority 1985, published 2002)
# Counter-ions that a name gives are not always drawn.
# Key:
# [1] = system: Streptozotocin-diabetic male Lewis rats; assay: Tail tendon collagen solubility (pepsin), streptozotocin-diabetic rats; format: in vivo, rat; settings: 9 months; for Collagen Solubility: tail tendon
# Procedure: Streptozotocin-diabetic male Lewis rats were treated for a 9-month time period with daily doses of aminoguanidine hydrochloride of 0, 6.25, 12.5, 25, and 50 mg/kg/day. After the treatment period, collagen in tail tendon fiber was subjected to solubility determination. Ten mg samples were incubated with gentle rocking for 5 hours at 4° C. in 5 ml of 0.5M acetic acid containing 1 mg pepsin. The samples were then centrifuged at 50,000× g for 1 hour, and the soluble and insoluble fraction separated by decanting. Each fraction was hydrolyzed in 6N HCl and total hydroxyproline measured.
# normal and diabetic rats [2] = assay: Cross-linking of lipoprotein to aorta collagen, ELISA for apolipoprotein-B; format: in vivo, rat; settings: 25 mg/kg daily i.p., 16 weeks
# Procedure: (§1) The experiment consisted of giving both normal and diabetic rats daily intraperitoneal doses of the agent aminoguanidine hydrochloride at a dose of 25 mg per kilogram of body weight, for a period of 16 weeks. […] Diabetes was induced prior to drug therapy with a single dose of streptozotocin. Control animals, both diabetic and normal, received no drug.
# Aorta samples from the same group of animals described in Example IV above, were subjected to analysis for cross-linking of lipoprotein to collagen, using an enzyme immunoassay. A standard ELISA procedure was employed, using antiserum to rat apoliproprotein-B raised in rabbits, peroxidase-labeled anti-rabbit antibody, and standard chromogenic reagents to detect quantity of antibody bound.
# [3] = Irritation on intraperitoneal injection, salt compared with free base; format: in vivo
# normal and diabetic rats [4] = assay: Aorta advanced glycosylation endproduct content (specific fluorescence of collagen); format: in vivo, rat; settings: for Advanced glycosylation products: aorta, 25 mg/kg daily i.p., 16 weeks
# Procedure: as §1
# Aorta samples from the same groups of animals described in Example IV above were subjected to analysis for Advanced Glycosylation Endproducts (A.G.E.) content and solubility.
# Aortas were finely minced with dissecting scissors, delipidated with 5 mL of chloroform: methanol (2:1), washed 5 times with buffer, and divided into aliquots for the following assessments of cross-linking:
# (A) Specific fluorescence of collagen after complete solubilization by proteinase k and pepsin.
# After treatment for the prescribed period, soluble material was separated from insoluble material by centrifugation (50,000× g, 1 hour), and all fractions were lyophilized and hydrolyzed in 6M HCl for determination of total hydroxyproline.
# kidney = settings: in vivo; cited from earlier work
# [5] = system: demineralized bone matrix particles; assay: Bone differentiation of AGE-modified demineralized bone matrix implanted in rats; format: in vivo, rat
# Procedure: In order to assess the possible role of hyperglycemia-induced matrix modifications in this process, demineralized bone matrix particles from 35 week old normal Long-Evans rats were prepared. Matrix is incubated in phosphate buffered saline alone (PBS), PBS containing various sugar precursors of AGE (PBS−G), and PBS with sugars plus the AGE-inhibitor aminoguanidine (PBS−G+AG). After incubation, the matrix is washed and implanted subcutaneously in normal rats. Twelve days after implantation, ^45CaCl2 is injected to determine implant mineralization, and alkaline phosphatase activity is measured to assess osteoblast function. Duplicate specimens are fixed, embedded and stained for histologic evaluation.
smiles,measurement,setting,value
N=C(N)NN [aminoguanidine hydrochloride],prevention of the diabetes-induced fall in tail tendon collagen solubility,[1]; 6.25 up to 50 mg/kg/day orally,significantly prevented this change in a dose-dependent manner
same,prevention of the diabetes induced cross-linking,[1]; highest dose (50 mg/kg/day orally),80%
same,Collagen Solubility,"[1]; Diabetic, 12.5 mg/kg/day",66.7 ± 1.2%
same,Collagen Solubility,"[1]; Diabetic, 50 mg/kg/day",75.9 ± 0.4%
same,Collagen Solubility,"[1]; Normal, 50 mg/kg/day",88.2 ± 0.2%
same,LIPOPROTEIN BOUND PER MG COLLAGEN,normal and diabetic rats [2]; diabetic rats,0.64
same,LIPOPROTEIN BOUND PER MG COLLAGEN,normal and diabetic rats [2]; normal rats,0.53
same,irritation compared with the parent free base,[3],less irritating
same,Advanced glycosylation products,normal and diabetic rats [4]; diabetic rats,4.5 ± 0.1 Specific fluorescence per mg hydroxyproline
same,Advanced glycosylation products,normal and diabetic rats [4]; normal rats,2.8 ± 0.1 Specific fluorescence per mg hydroxyproline
same,level of fluorescent advanced glycosylation products in aortic tissue relative to untreated normal rats,normal and diabetic rats [4]; treated diabetic rats vs untreated normal rats,1.3 times
same,immunoglobulin trapping in the kidney,kidney,reduction of immunoglobulin trapping in the kidney
same,bone differentiation,"[5]; matrix incubated with AGE precursor plus aminoguanidine, implanted subcutaneously, 12 days",80 % of control
same,matrix AGE content (specific fluorescence),[5]; simultaneous incubation of matrix with AGE precursor and aminoguanidine,reduced fluorescence to normal
